Assay results as given in patent US20230106465A1, “7-Gene Prognostic and Predictive Assay for Non-Small Cell Lung Cancer in Formalin Fixed and Paraffin Embedded Samples” (West Virginia University, priority 2019, published 2023).

Legend:
Format in all cases: in vivo, human
SLC39A8 = assay: Cox proportional hazard model using SLC39A8 ΔCt values in qRT-PCR of NSCLC patients treated with chemotherapy; conditions: SLC39A8 expression
Source text: (§1) Patient samples. All NSCLC patients were staged I, II, or IIIA at the time of diagnosis. Tumor tissues were collected in surgical resections and were then formalin fixed or paraffin embedded until used for RNA extraction. Tumor cell content was above 50% for qRT-PCR assays. Those with missing AJCC staging information, missing histology, death within 30 days of resection or from other disease conditions were excluded from further analysis. A total of 122 NSCLC patient samples were obtained from Case Western Reserve University (CWRU) Comprehensive Cancer Center. […] The tissue collection in this study was approved by an Institutional Review Board (IRB) at each institution.
(§2) RNA extraction, and quality and concentration assessments. […] The quality and integrity of the RNA, the 28S to 18S ratio, and a visual image of the 28S and 18S bands were evaluated on the 2100 Bioanalyzer (Agilent Technologies, CA). […] The RNA concentration of each sample was assessed using a Nanodrop-1000 Spectrophotometer (NanoDrop Tech, Germany). […]
(§3) Real-time quantitative RT-PCR low-density arrays. […]
(§4) Three hundred thirty seven (337) tumor samples were analyzed with good RNA quality using TaqMan microfluidic low-density array (LDA) plates on an ABI 7900HT Fast RT-PCR instrument (Applied Biosystems).

FUT7 = assay: Cox proportional hazard model using FUT7 ΔCt values in qRT-PCR of NSCLC patients treated with chemotherapy; conditions: FUT7 expression
Source text: Patient samples. All NSCLC patients were staged I, II, or IIIA at the time of diagnosis. Tumor tissues were collected in surgical resections and were then formalin fixed or paraffin embedded until used for RNA extraction. Tumor cell content was above 50% for qRT-PCR assays. Those with missing AJCC staging information, missing histology, death within 30 days of resection or from other disease conditions were excluded from further analysis. A total of 122 NSCLC patient samples were obtained from Case Western Reserve University (CWRU) Comprehensive Cancer Center. Total RNA of good quality was extracted from 89 tumor specimens. […]
RNA extraction, and quality and concentration assessments. […] The quality and integrity of the RNA, the 28S to 18S ratio, and a visual image of the 28S and 18S bands were evaluated on the 2100 Bioanalyzer (Agilent Technologies, CA). RNA assessed as having good quality from […] tumor samples was included for further analysis. The RNA concentration of each sample was assessed using a Nanodrop-1000 Spectrophotometer (NanoDrop Tech, Germany). […]
as §3
Three hundred thirty seven (337) tumor samples were analyzed with good RNA quality using TaqMan microfluidic low-density array (LDA) plates on an ABI 7900HT Fast RT-PCR instrument (Applied Biosystems). Total RNA samples were analyzed on an Agilent 2100 Bioanalyzer RNA 6000 Nano LabChip. […]

ABCC4 = assay: Cox proportional hazard model using ABCC4 ΔCt values in qRT-PCR of NSCLC patients treated with chemotherapy; conditions: ABCC4 expression; patients treated with the named agent(s)
Source text: as §1, §2, §3, §4

Structure (SMILES)	Chemosensitive/resistant (SLC39A8)	Chemosensitive/resistant (FUT7)	Chemosensitive/resistant (ABCC4)
Nc1nc2[nH]cc(CCc3ccc(C(=O)N[C@@H](CCC(=O)O)C(=O)O)cc3)c2c(=O)[nH]1 [Alimta, pemetrexed]	Chemoresistant		
N.N.O=C([O-])C1(C(=O)[O-])CCC1.[Pt+2] [Carboplatin, carboplatin]		Chemosensitive	
CC(=O)O[C@H]1C(=O)[C@@]2(C)[C@H]([C@H](OC(=O)c3ccccc3)[C@]3(O)C[C@H](OC(=O)[C@H](O)[C@@H](NC(=O)c4ccccc4)c4ccccc4)C(C)=C1C3(C)C)[C@]1(OC(C)=O)CO[C@@H]1C[C@@H]2O [Taxol, paclitaxel]	Chemoresistant		Chemoresistant
